# Test results reported in ChEMBL document CHEMBL1914390, “A new method for induced fit docking (GENIUS) and its application to virtual screening of novel HCV NS3-4A protease inhibitors” (Bioorg Med Chem, 2011).
# pEC50, pIC50: −log10 of the molar value.
# Key:
# [1] = Cytotoxicity against human HuH7 cells expressing chimeric gene encoding firefly luciferase and neomycin phosphotransferase assessed as cell proliferation after 72 hrs by MTT assay; format: cell-based, Huh-7
# [2] = Selectivity index, ratio of CC50 for human HuH7 cells expressing chimeric gene encoding firefly luciferase and neomycin phosphotransferase by MTT assay to EC50 for HCV; design: species or system Huh-7
# Hepacivirus hominis [3] = assay: Inhibition of HCV recombinant N-terminal histidine-tagged NS3/4A protease expressed Escherichia coli using Mca-Asp-Asp-Ile-Val-Pro-Cys-Ser-Met-Lys(Dnp)-Arg-Arg as fluorogenic substrate at 100 uM after 30 mins by FRET assay
# Hepatitis C virus = assay: Antiviral activity against Hepatitis C virus infected in human Huh7/Rep-Feo cells assessed as inhibition of viral replication after 72 hrs by luciferase assay; format: functional, organism-based, Hepacivirus hominis; conditions: Huh-7, 72 h
# [4] = Inhibition of HCV recombinant N-terminal histidine-tagged NS3/4A protease expressed Escherichia coli using Mca-Asp-Asp-Ile-Val-Pro-Cys-Ser-Met-Lys(Dnp)-Arg-Arg as fluorogenic substrate after 30 mins by FRET assay; design: species or system Hepacivirus hominis
# [5] = Cytotoxicity against human HuH7 cells expressing chimeric gene encoding firefly luciferase and neomycin phosphotransferase assessed as cell viability after 72 hrs by cell titer-glo luminescent assay; format: cell-based, Huh-7
# [6] = Selectivity index, ratio of CC50 for human HuH7 cells expressing chimeric gene encoding firefly luciferase and neomycin phosphotransferase by cell titer-glo luminescent cell viability assay to EC50 for HCV; design: species or system Huh-7
# Hepacivirus hominis [7] = assay: Ratio of EC50 for HCV to IC50 for HCV recombinant N-terminal histidine-tagged NS3/4A protease
pIC50 [4],SMILES,CC50 at 72 h [1],Ratio CC50/EC50 [2],inhibition (Hepacivirus hominis [3]),pEC50 (Hepatitis C virus),CC50 at 72 h [5],Ratio CC50/EC50 [6],Ratio (Hepacivirus hominis [7])
,CCOc1cc(/C=N/NC(=O)C(C)Oc2ccc([N+](=O)[O-])cc2)ccc1OC(=O)c1ccc(Cl)cc1Cl (centres undefined),> 125 µM,>5.4,42.9%,4.64,,,
4.92,CCc1cc(OCc2ccc([N+](=O)[O-])cc2)c(OC)cc1/C=N/NC(=O)c1cc2cc([N+](=O)[O-])ccc2o1,,,,,,,
4.91,COc1cc(/C=N/NC(=O)COc2ccc([N+](=O)[O-])cc2)ccc1OC(=O)c1sc2ccccc2c1Cl,> 125 µM,,,4.03,,,10
5.08,COc1cc(/C=N/NC(=O)c2cc3cc([N+](=O)[O-])ccc3o2)cc([N+](=O)[O-])c1OCc1ccc([N+](=O)[O-])cc1,,,,,,,
,CCCOc1ccc(C(=O)Oc2ccc(/C=N/NC(=O)COc3ccc([N+](=O)[O-])cc3)cc2OCC)cc1,> 125 µM,>9.6,38%,4.89,,,
5.39,COc1cc(/C=N/NC(=O)C(C)Oc2ccc([N+](=O)[O-])cc2)ccc1OC(=O)c1sc2ccccc2c1Cl (centres undefined),> 125 µM,,,3.92,,,10
5.09,C=CCc1cc(/N=N/C(=O)c2cc3cc([N+](=O)[O-])ccc3o2)cc(OCC)c1OCc1ccc(Cl)cc1,> 125 µM,,,< 3.90,,,
4.77,COc1cc(/C=N/NC(=O)c2cc3cc([N+](=O)[O-])ccc3o2)c(C)cc1OCc1ccc([N+](=O)[O-])cc1,,,,,,,

SMILES,pIC50 [4],CC50 at 72 h [1],Ratio CC50/EC50 [2],inhibition (Hepacivirus hominis [3]),pEC50 (Hepatitis C virus),CC50 at 72 h [5],Ratio CC50/EC50 [6],Ratio (Hepacivirus hominis [7])
COc1ccc(C(=O)Cc2ccc3ccccc3c2/C=N/NC(=O)COc2ccc([N+](=O)[O-])cc2)cc1,4.19,> 125 µM,,,5.07,9 µM,1.1,
COc1cc(/C=N/NC(=O)c2cc3cc([N+](=O)[O-])ccc3o2)ccc1OCc1ccc([N+](=O)[O-])cc1,5.07,> 125 µM,,,4.92,> 80 µM,>9.3,
CCC(C)Oc1ccc(/N=N/C(=O)c2cc3cc([N+](=O)[O-])ccc3o2)cc1Br (centres undefined),4.64,57 µM,,,4.87,36 µM,2.6,
O=C(COc1ccc([N+](=O)[O-])cc1)N/N=C/c1ccccc1OC(=O)c1sc2ccccc2c1Cl,5.97,> 125 µM,,,4.71,40 µM,2.1,10
CC(Oc1ccc([N+](=O)[O-])cc1)C(=O)N/N=C/c1ccccc1OC(=O)c1sc2ccccc2c1Cl (centres undefined),6.00,> 125 µM,,,4.90,19 µM,1.5,10
